The source of these data is US20220340597A1, “HEXAHYDRO-1H-PYRAZINO[1,2-A]PYRAZINE COMPOUNDS FOR THE TREATMENT OF AUTOIMMUNE DISEASE” (Hoffmann-La Roche Inc., priority 2019, published 2022).

The target of this experiment is T1, human TLR9 (Homo sapiens, UniProt Q9NR96).
T1 construct: host or cells: HEK293 (HEK-Blue hTLR9)
T1 sequence (Q9NR96 26-1032): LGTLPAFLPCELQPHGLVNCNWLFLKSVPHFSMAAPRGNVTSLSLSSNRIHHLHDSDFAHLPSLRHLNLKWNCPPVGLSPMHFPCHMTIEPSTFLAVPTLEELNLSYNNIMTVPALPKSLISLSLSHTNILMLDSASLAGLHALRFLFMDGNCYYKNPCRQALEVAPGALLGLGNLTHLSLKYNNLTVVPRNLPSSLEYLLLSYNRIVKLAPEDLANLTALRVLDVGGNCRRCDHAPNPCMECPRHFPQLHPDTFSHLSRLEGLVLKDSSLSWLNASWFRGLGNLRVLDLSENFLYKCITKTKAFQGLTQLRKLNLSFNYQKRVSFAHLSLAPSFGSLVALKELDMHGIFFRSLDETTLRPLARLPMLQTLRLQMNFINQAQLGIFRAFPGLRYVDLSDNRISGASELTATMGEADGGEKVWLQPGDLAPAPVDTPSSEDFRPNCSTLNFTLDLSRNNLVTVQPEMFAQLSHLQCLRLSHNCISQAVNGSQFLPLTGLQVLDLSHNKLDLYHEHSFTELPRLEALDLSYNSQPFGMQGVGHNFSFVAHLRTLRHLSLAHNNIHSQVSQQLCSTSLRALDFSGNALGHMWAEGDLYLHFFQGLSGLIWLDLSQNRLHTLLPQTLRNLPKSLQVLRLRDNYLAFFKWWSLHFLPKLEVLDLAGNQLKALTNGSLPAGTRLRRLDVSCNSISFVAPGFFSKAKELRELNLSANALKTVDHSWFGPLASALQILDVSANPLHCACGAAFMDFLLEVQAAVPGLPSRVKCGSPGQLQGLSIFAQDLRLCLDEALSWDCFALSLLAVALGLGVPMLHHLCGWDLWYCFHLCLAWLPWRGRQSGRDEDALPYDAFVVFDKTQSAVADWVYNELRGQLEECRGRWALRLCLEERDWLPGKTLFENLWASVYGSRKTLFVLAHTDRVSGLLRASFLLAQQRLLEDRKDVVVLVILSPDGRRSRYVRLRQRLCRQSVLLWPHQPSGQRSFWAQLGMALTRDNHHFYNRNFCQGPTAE
As to the kind of experiment: HEK293-Blue-hTLR-9 cells assay. It counts as cell-based. To be noted: HEK293-Blue-hTLR9 cells, ODN2006 stimulation, 20 hrs, SEAP reporter; read-out: HEK/hTLR9 IC50.

SMILES strings stand for the structures.

With `CO[C@@H]1CN(c2ccc(CCN3CCN4[C@@H](C3)CN(c3ccc(C#N)c5ncccc35)C[C@H]4C)nc2)C[C@H]1N` [Example 13, 5-[(4R,9aS)-8-[2-[5-[(3R,4R)-3-amino-4-methoxy-pyrrolidin-1-yl]-2-pyridyl]ethyl]-4-methyl-3,4,6,7,9,9a-hexahydro-1H-pyrazino[1,2-a]pyrazin-2-yl]quinoline-8-carbonitrile], the IC50 was found to be 40 nM.

Take `N#Cc1ccc(N2CCN3CCN(c4cccc5c4CNC5)CC3C2)c2cccnc12` (stereo not drawn) [Example 35, 5-(8-isoindolin-4-yl-3,4,6,7,9,9a-hexahydro-1H-pyrazino[1,2-a]pyrazin-2-yl)quinoline-8-carbonitrile]: the IC50 was 98 nM.

For the molecule `CO[C@@H]1CN(c2ccc(CCN3CCN4[C@@H](C3)CN(c3ccc(C#N)n5nccc35)C[C@H]4C)cc2)C[C@H]1N` [Example 68, 4-[(4R,9aS)-8-[2-[4-[(3R,4R)-3-amino-4-methoxy-pyrrolidin-1-yl]phenyl]ethyl]-4-methyl-3,4,6,7,9,9a-hexahydro-1H-pyrazino[1,2-a]pyrazin-2-yl]pyrazolo[1,5-a]pyridine-7-carbonitrile], the IC50 worked out at 41 nM.

Consider `Cc1cc(N2CCN3[C@@H](C2)CN(c2ccc(C#N)c4ncccc24)C[C@H]3C)nc(N2CCNCC2)n1` [Example 31, 5-[(4R,9aR)-4-methyl-8-(6-methyl-2-piperazin-1-yl-pyrimidin-4-yl)-3,4,6,7,9,9a-hexahydro-1H-pyrazino[1,2-a]pyrazin-2-yl]quinoline-8-carbonitrile], for which the IC50 came to 85 nM.

Consider `Cc1cc(N2CCOC[C@H](N)C2)ncc1N1CCN2CCN(c3ccc(C#N)c4ncccc34)CC2C1` (stereo partly drawn) [Example 46, 5-[2-[6-[(6R)-6-amino-1,4-oxazepan-4-yl]-4-methyl-3-pyridyl]-3,4,6,7,9,9a-hexahydro-1H-pyrazino[1,2-a]pyrazin-8-yl]quinoline-8-carbonitrile], for which the IC50 was determined as 78 nM.

Take `C[C@@H]1CN(c2ccc(C#N)n3ncc(F)c23)C[C@@H]2CN(CCc3ccc(N4C[C@@H](N)[C@@H](F)C4)nc3)CCN21` [Example 75, 4-[(4R,9aS)-8-[2-[6-[(3R,4S)-3-amino-4-fluoro-pyrrolidin-1-yl]-3-pyridyl]ethyl]-4-methyl-3,4,6,7,9,9a-hexahydro-1H-pyrazino[1,2-a]pyrazin-2-yl]-3-fluoro-pyrazolo[1,5-a]pyridine-7-carbonitrile]: the IC50 is 65 nM.

For `[2H]c1ccc2c(N3C[C@@H]4CN(Cc5ccc6c(c5)CNCC6)CCN4[C@H](C)C3)ccc(C#N)c2n1` [Example 61, 5-[(4R,9aS)-4-methyl-8-(1,2,3,4-tetrahydroisoquinolin-7-ylmethyl)-3,4,6,7,9,9a-hexahydro-1H-pyrazino[1,2-a]pyrazin-2-yl]-2-deuterio-quinoline-8-carbonitrile], the IC50 was 64 nM.

For the molecule `C[C@@H]1CN(c2ccc(C#N)c3ncccc23)C[C@@H]2CN(Cc3ccc(N4CCCNCC4)nc3)CCN21` [Example 15, 5-[(4R,9aS)-8-[[6-(1,4-diazepan-1-yl)-3-pyridyl]methyl]-4-methyl-3,4,6,7,9,9a-hexahydro-JH-pyrazino[1,2-a]pyrazin-2-yl]quinoline-8-carbonitrile], the IC50 turned out to be 41 nM.

In the case of `C[C@@H]1CN(c2ccc(C#N)c3ncccc23)C[C@@H]2CN(c3ccnc(N4CCOC[C@H](N)C4)c3)CCN21` [Example 54, 5-[(4R,9aS)-8-[2-[(6R)-6-amino-1,4-oxazepan-4-yl]-4-pyridyl]-4-methyl-3,4,6,7,9,9a-hexahydro-1H-pyrazino[1,2-a]pyrazin-2-yl]quinoline-8-carbonitrile], the IC50 is 43 nM.

As to `C[C@@H]1CN(c2ccc(C#N)c3ncccc23)C[C@@H]2CN(CCc3ccc(N4CCNCC4)nc3)CCN21` [Example 11, 5-[(4R,9aS)-4-methyl-8-[2-(6-piperazin-1-yl-3-pyridyl)ethyl]-3,4,6,7,9,9a-hexahydro-1H-pyrazino[1,2-a]pyrazin-2-yl]quinoline-8-carbonitrile], the IC50 is 37 nM.

With `C[C@@H]1CN(c2ccc(C#N)c3ncccc23)C[C@@H]2CN(c3ccnc(N4C[C@@H](F)[C@@H](N)C4)c3)CCN21` [Example 40, 5-[(4R,9aS)-8-[2-[(3S,4R)-3-amino-4-fluoro-pyrrolidin-1-yl]-4-pyridyl]-4-methyl-3,4,6,7,9,9a-hexahydro-1H-pyrazino[1,2-a]pyrazin-2-yl]quinoline-8-carbonitrile], the IC50 is under 32 nM.

Regarding `Cc1nc(N2CC(C)(N)C2)ccc1CN1CCN2[C@@H](C1)CN(c1ccc(C#N)c3ncccc13)C[C@H]2C` [Example 76, 5-[(4R,9aS)-8-[[6-(3-amino-3-methyl-azetidin-1-yl)-2-methyl-3-pyridyl]methyl]-4-methyl-3,4,6,7,9,9a-hexahydro-1H-pyrazino[1,2-a]pyrazin-2-yl]quinoline-8-carbonitrile], the IC50 turned out to be 50 nM.

As to `CO[C@@H]1CN(c2ccc(CCN3CCN4[C@@H](C3)CN(c3ccc(C#N)n5ncc(F)c35)C[C@H]4C)cn2)C[C@H]1N` [Example 67, 4-[(4R,9aS)-8-[2-[6-[(3R,4R)-3-amino-4-methoxy-pyrrolidin-1-yl]-3-pyridyl]ethyl]-4-methyl-3,4,6,7,9,9a-hexahydro-1H-pyrazino[1,2-a]pyrazin-2-yl]-3-fluoro-pyrazolo[1,5-a]pyridine-7-carbonitrile], the IC50 turned out to be 83 nM.

Consider `[2H]c1ccc2c(N3C[C@@H]4CN(c5ncc(N6CC7CC(C6)N7)cc5C)CCN4[C@@H](C)C3)ccc(C#N)c2n1` [Example 108, 5-[(4S,9aR)-8-[5-(3,6-diazabicyclo[3.1.1]heptan-3-yl)-3-methyl-2-pyridyl]-4-methyl-3,4,6,7,9,9a-hexahydro-1H-pyrazino[1,2-a]pyrazin-2-yl]-2-deuterio-quinoline-8-carbonitrile], for which the IC50 was 98 nM.

Take `[2H]c1ccc2c(N3C[C@@H]4CN(c5ncc(C(=O)N6CC7(CN(C)C7)C6)cc5C)CCN4[C@H](C)C3)ccc(C#N)c2n1` [Example 102, 5-[(4R,9aR)-4-methyl-8-[3-methyl-5-(6-methyl-2,6-diazaspiro[3.3]heptane-2-carbonyl)-2-pyridyl]-3,4,6,7,9,9a-hexahydro-1H-pyrazino[1,2-a]pyrazin-2-yl]-2-deuterio-quinoline-8-carbonitrile]: the IC50 is 154 nM.

Regarding `C[C@@H]1CN(c2ccc(C#N)c3ncccc23)C[C@@H]2CN(c3nccc4c3CCNC4)CCN21` [Example 16, 5-[(4R,9aR)-4-methyl-8-(5,6,7,8-tetrahydro-2,6-naphthyridin-1-yl)-3,4,6,7,9,9a-hexahydro-1H-pyrazino[1,2-a]pyrazin-2-yl]quinoline-8-carbonitrile], the IC50 is 120 nM.

As to `[2H]c1ccc2c(N3C[C@@H]4CN(c5ccc([C@H]6CNCCO6)cc5)CCN4[C@@H](C)C3)ccc(C#N)c2n1` [Example 107, 5-[(4S,9aS)-4-methyl-8-[4-[(2S)-morpholin-2-yl]phenyl]-3,4,6,7,9,9a-hexahydro-1H-pyrazino[1,2-a]pyrazin-2-yl]-2-deuterio-quinoline-8-carbonitrile], the IC50 was determined as 146 nM.

With `C[C@@H]1CN(c2ccc(C#N)c3ncccc23)C[C@@H]2CN(Cc3cncc(N4CCNCC4)c3)CCN21` [Example 57, 5-[(4R,9aS)-4-methyl-8-[(5-piperazin-1-yl-3-pyridyl)methyl]-3,4,6,7,9,9a-hexahydro-1H-pyrazino[1,2-a]pyrazin-2-yl]quinoline-8-carbonitrile], the IC50 is 94 nM.
